Data taken from US6664231B1, “Anti-fungal peptides” (priority 1993, dated 2003).
Like-named read-outs stand apart in the source and are kept apart here. Square brackets hold non-standard residues; d marks the D form. Ends that are not written are not given here. Peptide text beside a SMILES is read from it. d2Nal = N[C@H](Cc1ccc2ccccc2c1)C(=O)O; Orn = NCCC[C@H](N)C(=O)O

Tests used:
mouse RAW 264.7 cells = system: mouse RAW 264.7 cells
Description: (§1) An in vitro LPS neutralization screening assay for evaluation of Domain III derived peptides was developed (as described in co-owned and co-pending U.S. patent application Ser. No. 08/306,473) which provides both a measure of efficacy of each peptide (EC50) and of the toxicity/growth inhibition of each peptide (IC50).
(§2) The cells were counted and their concentration adjusted to 2×10^5 cells/mL and 100 μL aliquots were added to each well of a 96-well microtitre plate. […] This incubation was performed in the absence or presence of peptides in varying concentrations between 25 ng/mL and 50 μg/mL. […] Cell proliferation was quantitatively measured by the addition of 1 μCi/well [^3H]-thymidine 5 hours after the time of initiation of the assay. After the 15-hour incubation, labeled cells were harvested onto glass fiber filters with a cell harvester (Inotech Biosystems, INB-384, Sample Processing and Filter Counting System, Lansing, Mich.).

[1] = system: mouse RAW 264.7 cells incubated with E. coli O113 LPS; conditions: RAW 264.7 cells with E. coli O113 LPS; concentration reversing LPS growth inhibition by 50%
Description: as §1, §2

[2] = RAW 264.7 cell growth inhibited by 50%

| Compound | IC50 (toxicity/growth inhibition of peptide) (mouse RAW 264.7 cells; [2]) | In Vitro LPS Neutralization EC50 [1] | IC50 (toxicity/growth inhibition of peptide) (mouse RAW 264.7 cells) [mg/L] |
| --- | --- | --- | --- |
| CCCCCCCC(=O)N[C@H](CCCCN)C(=O)N[C@H](Cc1c[nH]c2ccccc12)C(=O)N[C@H](CC(C)C)C(=O)N[C@@H](C(=O)N[C@H](CCC(N)=O)C(=O)N[C@H](CC(C)C)C(=O)N[C@H](Cc1ccccc1)C(=O)N[C@H](Cc1c[nH]cn1)C(=O)N[C@H](CCCCN)C(=O)N[C@H](CCCCN)C(N)=O)[C@H](C)CC [XMP.414] | 10.96 ± 0.52 mg/L | 1.91 ± 0.04 mg/L | – |
| H-KKWLIQAKK-NH2 [XMP.345P] | NA (NA for IC50 means no evidence of decreased RAW cell growth at up to 50 μg/ml) | >50 mg/L | – |
| CC[C@H](C)[C@H](NC(=O)[C@H](CC(C)C)NC(=O)[C@H](Cc1c[nH]c2ccccc12)NC(=O)[C@H](CCCCN)NC(=O)[C@@H]1CCCN1)C(=O)N[C@@H](CCC(N)=O)C(=O)N[C@@H](CC(C)C)C(=O)N[C@@H](CCCCN)C(=O)N[C@@H](CCCCN)C(N)=O [XMP.335P] | NA (NA for IC50 means no evidence of decreased RAW cell growth at up to 50 μg/ml) | NA (NA for EC50 means no evidence neutralization of LPS at up to 50 μg/ml) | – |
| H-RRWLIQLRR-NH2 [XMP.336P] | NA (NA for IC50 means no evidence of decreased RAW cell growth at up to 50 μg/ml) | NA (NA for EC50 means no evidence neutralization of LPS at up to 50 μg/ml) | – |
| H-HHWLIQLHH-NH2 [XMP 337P] | NA (NA for IC50 means no evidence of decreased RAW cell growth at up to 50 μg/ml) | >50 mg/L | – |
| KKWAIQLKK-NH2 (C-terminus assumed) [XMP.344P] | NA (NA for IC50 means no evidence of decreased RAW cell growth at up to 50 μg/ml) | >25 mg/L | – |
| CC[C@H](C)[C@H](NC(=O)[C@H](CC(C)C)NC(=O)[C@@H](N)Cc1c[nH]c2ccccc12)C(=O)N[C@@H](CCC(N)=O)C(=O)N[C@@H](CC(C)C)C(=O)N[C@@H](Cc1ccccc1)C(=O)N[C@@H](Cc1c[nH]cn1)C(=O)N[C@@H](CCCCN)C(N)=O [XMP.303P] | NA (NA for IC50 means no evidence of decreased RAW cell growth at up to 50 μg/ml) | 11.79 ± 0.85 mg/L | – |
| H-KVKWLIQLFHK-NH2 [XMP.288P] | – | 0.87 ± 0.06 mg/L | >25 |
| KKWLIQLFKK-NH2 [XMP.351P] | NA (NA for IC50 means no evidence of decreased RAW cell growth at up to 50 μg/ml) | 8.47 ± 0.71 mg/L | – |
| Ac-PWLIQLFHKK-NH2 [XMP.356P] | – | 2.72 ± 0.02 mg/L | >25 |
| GWLIQLFHKK-NH2 [XMP.388P] | NA (NA for IC50 means no evidence of decreased RAW cell growth at up to 50 μg/ml) | 8.08 ± 1.52 mg/L | – |
| H-KKLQLLLKK-NH2 [XMP.381P] | NA (NA for IC50 means no evidence of decreased RAW cell growth at up to 50 μg/ml) | NA (NA for EC50 means no evidence neutralization of LPS at up to 50 μg/ml) | – |
| CC[C@H](C)[C@H](NC(=O)[C@H](CC(C)C)NC(=O)[C@@H](Cc1c[nH]c2ccccc12)NC(=O)[C@H](N)CCCCN)C(=O)N[C@@H](CCC(N)=O)C(=O)N[C@@H](CC(C)C)C(=O)N[C@@H](Cc1ccccc1)C(=O)N[C@@H](Cc1c[nH]cn1)C(=O)N[C@H](CCCCN)C(=O)N[C@H](CCCCN)C(N)=O [XMP.363P] | NA (NA for IC50 means no evidence of decreased RAW cell growth at up to 50 μg/ml) | >50 mg/L | – |
| H-PWLIQLFHKK-NH2 [XMP.355P] | NA (NA for IC50 means no evidence of decreased RAW cell growth at up to 50 μg/ml) | 1.08 ± 0.05 mg/L | – |
| CC[C@@H](C)[C@@H](NC(=O)[C@@H](CCC(N)=O)NC(=O)[C@@H](CC(C)C)NC(=O)[C@@H](Cc1ccccc1)NC(=O)[C@@H](Cc1c[nH]cn1)NC(=O)[C@@H](CCCCN)NC(=O)[C@@H](CCCCN)NC(C)=O)C(=O)N[C@H](CC(C)C)C(=O)N[C@H](Cc1c[nH]c2ccccc12)C(=O)N[C@H](CCCCN)C(N)=O [XMP.368P] | – | 1.95 ± 0.11 mg/L | >25 |
| H-KKLLLQLKK-NH2 [XMP.383P] | NA (NA for IC50 means no evidence of decreased RAW cell growth at up to 50 μg/ml) | NA (NA for EC50 means no evidence neutralization of LPS at up to 50 μg/ml) | – |
| H-SKWAIQLKK-NH2 [XMP.409P] | NA (NA for IC50 means no evidence of decreased RAW cell growth at up to 50 μg/ml) | NA (NA for EC50 means no evidence neutralization of LPS at up to 50 μg/ml) | – |
| PWAIQLFHKK-NH2 (C-terminus assumed) [XMP.387P] | NA (NA for IC50 means no evidence of decreased RAW cell growth at up to 50 μg/ml) | 15.53 ± 2.18 mg/L | – |
| CC[C@H](C)[C@@H]1NC(=O)[C@H](C)NC(=O)[C@H](Cc2c[nH]c3ccccc23)NC(=O)[C@H](CCCCN)NC(=O)[C@H](CCCCN)NC(=O)[C@H](CCCCN)NC(=O)[C@H](CC(C)C)NC(=O)[C@H](CCC(N)=O)NC1=O [XMP.408P] (cyclo(LKKKWAIQ)) | NA (NA for IC50 means no evidence of decreased RAW cell growth at up to 50 μg/ml) | NA (NA for EC50 means no evidence neutralization of LPS at up to 50 μg/ml) | – |
| CC[C@H](C)[C@H](NC(=O)[C@H](CC(C)C)NC(=O)[C@H](Cc1c[nH]c2ccccc12)NC(=O)[C@@H](N)CCCCN)C(=O)N[C@@H](CCCN)C(=O)N[C@@H](CC(C)C)C(=O)N[C@@H](Cc1ccccc1)C(=O)N[C@@H](Cc1c[nH]cn1)C(=O)N[C@@H](CCCCN)C(=O)N[C@@H](CCCCN)C(N)=O [XMP.369P] (H-KWLI[Orn]LFHKK-NH2) | NA (NA for IC50 means no evidence of decreased RAW cell growth at up to 50 μg/ml) | 12.09 ± 0.43 mg/L | – |
| CC[C@H](C)[C@H](NC(=O)[C@H](CC(C)C)NC(=O)[C@H](Cc1c[nH]c2ccccc12)NC(=O)[C@H](N)CS)C(=O)N[C@@H](CCC(N)=O)C(=O)N[C@@H](CC(C)C)C(=O)N[C@@H](Cc1ccccc1)C(=O)N[C@@H](Cc1c[nH]cn1)C(=O)N[C@@H](CCCCN)C(=O)N[C@@H](CCCCN)C(N)=O [XMP.359P] (H-[dC]WLIQLFHKK-NH2; N-terminus assumed) | – | 7.31 ± 1.26 mg/L | >25 |
| H-KKWLIQLFHKK-NH2 [XMP.352P] | NA (NA for IC50 means no evidence of decreased RAW cell growth at up to 50 μg/ml) | 2.34 ± 0.38 mg/L | – |
| H-KSKVPWLIQLFHKK-NH2 [XMP.393P] | NA (NA for IC50 means no evidence of decreased RAW cell growth at up to 50 μg/ml) | >25 mg/L | – |
| CCCCCCCCCCCC(=O)N[C@H](CCCCN)C(=O)N[C@H](Cc1c[nH]c2ccccc12)C(=O)N[C@H](CC(C)C)C(=O)N[C@@H](C(=O)N[C@H](CCC(N)=O)C(=O)N[C@H](CC(C)C)C(=O)N[C@H](Cc1ccccc1)C(=O)N[C@H](Cc1c[nH]cn1)C(=O)N[C@H](CCCCN)C(=O)N[C@H](CCCCN)C(N)=O)[C@H](C)CC [XMP.415] | – | 1.61 ± 0.03 mg/L | 6.80 ± 0.14 |
| CC[C@H](C)[C@H](NC(=O)[C@H](CC(C)C)NC(=O)[C@@H](Cc1ccc2ccccc2c1)NC(=O)[C@H](CCCCN)NC(=O)[C@@H](N)CCCCN)C(=O)N[C@@H](CC(C)C)C(=O)N[C@@H](CC(C)C)C(=O)N[C@@H](CCCCN)C(=O)N[C@@H](CCCCN)C(N)=O [XMP.347P] (H-KK[d2Nal]LILLKK-NH2) | – | 1.65 ± 0.09 mg/L | >25 |
| CC[C@H](C)[C@H](NC(=O)[C@H](CC(C)C)NC(=O)[C@H](Cc1c[nH]c2ccccc12)NC(=O)[C@H](CCCN)NC(=O)[C@@H](N)CCCN)C(=O)N[C@@H](CCC(N)=O)C(=O)N[C@@H](CC(C)C)C(=O)N[C@@H](CCCN)C(=O)N[C@@H](CCCN)C(N)=O [XMP 338] | NA (NA for IC50 means no evidence of decreased RAW cell growth at up to 50 μg/ml) | >25 mg/L | – |
| CC[C@H](C)[C@H](NC(=O)[C@H](CC(C)C)NC(=O)[C@H](Cc1c[nH]c2ccccc12)NC(=O)[C@H](CCCCN)NC(C)=O)C(=O)N[C@@H](CCCN)C(=O)N[C@@H](CC(C)C)C(=O)N[C@@H](Cc1ccccc1)C(=O)N[C@@H](Cc1c[nH]cn1)C(=O)N[C@@H](CCCCN)C(=O)N[C@@H](CCCCN)C(N)=O [XMP.370P] (Ac-KWLI[Orn]LFHKK-NH2) | – | NA (NA for EC50 means no evidence neutralization of LPS at up to 50 μg/ml) | >25 |
| H-KKQLLLLKK-NH2 [XMP.380P] | NA (NA for IC50 means no evidence of decreased RAW cell growth at up to 50 μg/ml) | NA (NA for EC50 means no evidence neutralization of LPS at up to 50 μg/ml) | – |
| H-KPWLIQLFHKK-NH2 [XMP.390P] | NA (NA for IC50 means no evidence of decreased RAW cell growth at up to 50 μg/ml) | 3.97 ± 0.21 mg/L | – |
